Source: US8188078B2 (Sanofi-Aventis, priority 2007, dated 2012)

The compounds below were run against T1, MET (Homo sapiens, UniProt P08581) (assay: Test C: inhibition of the autophosphorylation of MET, ELISA technique (pppY1230, 1234, 1235), MKN45 cells).
T1 construct: endogenous in cells; host or cells: MKN45 cells
Type: cell-based
Method in brief: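 MKN45 cells adhered 24 h, then treated 1 h with compound at 6 concentrations in duplicate, final range 10000 to 30 nM. Lysates assayed by phospho-MET (pY1230/1234/1235) sandwich ELISA with HRP chromogen read at 450 nm.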

T1 sequence (P08581 25-1390): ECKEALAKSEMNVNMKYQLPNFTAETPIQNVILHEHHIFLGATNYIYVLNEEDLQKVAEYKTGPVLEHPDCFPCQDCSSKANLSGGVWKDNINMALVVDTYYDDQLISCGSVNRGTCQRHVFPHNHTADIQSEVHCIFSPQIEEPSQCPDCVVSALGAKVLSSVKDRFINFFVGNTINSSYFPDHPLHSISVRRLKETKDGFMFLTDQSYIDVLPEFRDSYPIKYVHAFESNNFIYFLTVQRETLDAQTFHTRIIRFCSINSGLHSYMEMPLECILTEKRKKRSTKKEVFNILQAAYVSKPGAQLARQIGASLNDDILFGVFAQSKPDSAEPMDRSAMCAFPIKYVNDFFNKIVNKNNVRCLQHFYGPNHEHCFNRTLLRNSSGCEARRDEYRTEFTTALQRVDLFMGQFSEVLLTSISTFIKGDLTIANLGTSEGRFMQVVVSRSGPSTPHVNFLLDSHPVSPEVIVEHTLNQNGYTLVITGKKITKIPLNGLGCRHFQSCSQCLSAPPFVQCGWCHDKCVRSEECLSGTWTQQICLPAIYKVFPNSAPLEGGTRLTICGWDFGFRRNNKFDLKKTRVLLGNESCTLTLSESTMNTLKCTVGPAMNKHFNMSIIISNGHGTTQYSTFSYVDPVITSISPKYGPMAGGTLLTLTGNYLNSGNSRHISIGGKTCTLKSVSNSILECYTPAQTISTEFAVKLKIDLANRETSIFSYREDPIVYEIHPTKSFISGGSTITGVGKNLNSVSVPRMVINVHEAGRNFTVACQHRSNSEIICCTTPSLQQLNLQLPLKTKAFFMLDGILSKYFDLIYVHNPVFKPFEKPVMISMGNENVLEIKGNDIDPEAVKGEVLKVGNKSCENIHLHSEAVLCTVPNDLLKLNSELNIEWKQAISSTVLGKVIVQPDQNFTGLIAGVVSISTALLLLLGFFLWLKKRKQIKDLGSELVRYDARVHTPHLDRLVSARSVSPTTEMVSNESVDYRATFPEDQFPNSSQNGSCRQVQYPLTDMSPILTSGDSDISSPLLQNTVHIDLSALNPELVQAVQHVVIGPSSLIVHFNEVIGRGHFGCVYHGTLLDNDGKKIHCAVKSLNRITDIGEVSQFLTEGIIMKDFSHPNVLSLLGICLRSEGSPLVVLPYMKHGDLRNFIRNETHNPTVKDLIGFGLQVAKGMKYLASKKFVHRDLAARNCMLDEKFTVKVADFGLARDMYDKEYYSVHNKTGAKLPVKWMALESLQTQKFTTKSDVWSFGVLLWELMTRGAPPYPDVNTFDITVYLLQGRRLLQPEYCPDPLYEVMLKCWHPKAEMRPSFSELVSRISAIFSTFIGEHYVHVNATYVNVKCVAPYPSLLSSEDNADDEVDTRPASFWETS

CC(Oc1cc2sc(NC(=O)NCCOCc3ccccc3)nc2cc1F)c1c(Cl)ccc(F)c1Cl (stereo not shown) [Example 97, 1-[2-(benzyloxy)ethyl]-3-{6-[1-(2,6-dichloro-3-fluorophenyl)ethoxy]-5-fluoro-1,3-benzothiazol-2-yl}urea] and CC(Oc1cc2sc(NC(=O)NCCN(C)Cc3ccccc3)nc2cc1F)c1c(Cl)ccc(F)c1Cl (stereo not shown) [Example 94, 1-{2-[benzyl(methyl)amino]ethyl}-3-{6-[1-(2,6-dichloro-3-fluorophenyl)ethoxy]-5-fluoro-1,3-benzothiazol-2-yl}urea] fall in the same range of IC50: 500 to 10000 nM for the first, 500 to 10000 nM for the second.

CC(Oc1cc2sc(NC(=O)NCCC3CCCN3C)nc2cc1F)c1c(Cl)ccc(F)c1Cl (stereo not shown) [Example 79, 1-{6-[1-(2,6-dichloro-3-fluorophenyl)ethoxy]-5-fluoro-1,3-benzothiazol-2-yl}-3-[2-(1-methylpyrrolidin-2-yl)ethyl]urea] and CC(Oc1cc2sc(NC(=O)NCCN3CCCC3)nc2cc1F)c1c(Cl)ccc(F)c1Cl (stereo not shown) [Example 84, 1-{6-[1-(2,6-dichloro-3-fluorophenyl)ethoxy]-5-fluoro-1,3-benzothiazol-2-yl}-3-[2-(pyrrolidin-1-yl)ethyl]urea] cannot be ordered by IC50: less than 500 nM for the first, less than 500 nM for the second.

Compared with CC(Oc1cc2sc(NC(=O)NCCN(C)C(=O)OC(C)(C)C)nc2cc1F)c1c(Cl)ccc(F)c1Cl (stereo not shown) [Example 95], CC(Oc1cc2sc(NC(=O)NCCN)nc2cc1F)c1c(Cl)ccc(F)c1Cl (single isomer, unassigned) [Example 89, 1-(2-aminoethyl)-3-{6-[(1R*)-1-(2,6-dichloro-3-fluorophenyl)ethoxy]-5-fluoro-1,3-benzothiazol-2-yl}urea] is lower in IC50: 500 to 10000 nM for the first, less than 500 nM for the second.

CC(Oc1cc2[nH]c(NC(=O)NCCN3CCOCC3)nc2cc1F)c1c(Cl)ccc(F)c1Cl (stereo not shown) [Example 6, 1-{6-[1-(2,6-dichloro-3-fluorophenyl)ethoxy]-5-fluoro-1H-benzimidazol-2-yl}-3-(2-morpholin-4-ylethyl)urea] and CC(Oc1cc2sc(NC(=O)NCCN3CCCC3)nc2cc1F)c1c(Cl)ccc(F)c1Cl (single isomer, unassigned) [Example 85, 1-{6-[(1R*)-1-(2,6-dichloro-3-fluorophenyl)ethoxy]-5-fluoro-1,3-benzothiazol-2-yl}-3-[2-(pyrrolidin-1-yl)ethyl]urea] cannot be ordered by IC50: less than 500 nM for the first, less than 500 nM for the second.

First: O=C(Nc1nc2ccc(OCc3c(Cl)cccc3Cl)cc2[nH]1)C1CC1 [Example 7, N-{6-[(2,6-dichlorobenzyl)oxy]-1H-benzimidazol-2-yl}cyclopropane carboxamide]
Second: CCN(CC)CCNC(=O)Nc1nc2ccc(OC(C)c3c(Cl)ccc(F)c3Cl)cc2s1 (stereo not shown) [Example 82, 1-{6-[1-(2,6-dichloro-3-fluorophenyl)ethoxy]-1,3-benzothiazol-2-yl}-3-[2-(diethylamino)ethyl]urea]
The IC50 of the first is higher: 500 to 10000 nM for the first, less than 500 nM for the second. The second is the more potent here.

Compared with CC(Oc1cc2sc(NC(=O)NCCN3CCN(C)CC3)nc2cc1F)c1c(Cl)ccc(F)c1Cl (single isomer, unassigned) [Example 77, 1-{6-[(1S*)-1-(2,6-dichloro-3-fluorophenyl)ethoxy]-5-fluoro-1,3-benzothiazol-2-yl}-3-[2-(4-methylpiperazin-1-yl)ethyl]urea], CC(Oc1cc2sc(NC(=O)NCCO)nc2cc1F)c1c(Cl)ccc(F)c1Cl (stereo not shown) [Example 98, 1-{6-[1-(2,6-dichloro-3-fluorophenyl)ethoxy]-5-fluoro-1,3-benzothiazol-2-yl}-3-(2-hydroxyethyl)urea] is lower in IC50: 500 to 10000 nM for the first, less than 500 nM for the second.

CC(Oc1cc2sc(NC(=O)NCCN3CCN(C)CC3)nc2cc1F)c1c(Cl)ccc(F)c1Cl (single isomer, unassigned) [Example 76, 1-{6-[(1R*)-1-(2,6-dichloro-3-fluorophenyl)ethoxy]-5-fluoro-1,3-benzothiazol-2-yl}-3-[2-(4-methylpiperazin-1-yl)ethyl]urea] and CC(Oc1cc2sc(NC(=O)NCCN)nc2cc1F)c1c(Cl)ccc(F)c1Cl (stereo not shown) [Example 88, 1-(2-aminoethyl)-3-{6-[1-(2,6-dichloro-3-fluorophenyl)ethoxy]-5-fluoro-1,3-benzothiazol-2-yl}urea] cannot be ordered by IC50: less than 500 nM for the first, less than 500 nM for the second.

COCCNC(=O)Nc1nc2cc(F)c(OC(C)c3c(Cl)ccc(F)c3Cl)cc2s1 (stereo not shown) [Example 81, 1-{6-[1-(2,6-dichloro-3-fluorophenyl)ethoxy]-5-fluoro-1,3-benzothiazol-2-yl}-3-(2-methoxyethyl)urea] and CNCCNC(=O)Nc1nc2cc(F)c(OC(C)c3c(Cl)ccc(F)c3Cl)cc2s1 (stereo not shown) [Example 96, 1-{6-[1-(2,6-dichloro-3-fluorophenyl)ethoxy]-5-fluoro-1,3-benzothiazol-2-yl}-3-[2-(methylamino)ethyl]urea] cannot be ordered by IC50: less than 500 nM for the first, less than 500 nM for the second.

CC(Oc1cc2sc(NC(=O)NCCCN3CCCC3=O)nc2cc1F)c1c(Cl)ccc(F)c1Cl (stereo not shown) [Example 78, 1-{6-[1-(2,6-dichloro-3-fluorophenyl)ethoxy]-5-fluoro-1,3-benzothiazol-2-yl}-3-[3-(2-oxopyrrolidin-1-yl)propyl]urea] and CC(Oc1cc2sc(NC(=O)NCCN3CCN(C)CC3)nc2cc1F)c1c(Cl)ccc(F)c1Cl (stereo not shown) [Example 75, 1-{6-[1-(2,6-dichloro-3-fluorophenyl)ethoxy]-5-fluoro-1,3-benzothiazol-2-yl}-3-[2-(4-methylpiperazin-1-yl)ethyl]urea] cannot be ordered by IC50: less than 500 nM for the first, less than 500 nM for the second.

CCN(CC)CCCNC(=O)Nc1nc2ccc(OC(C)c3c(Cl)ccc(F)c3Cl)cc2s1 (stereo not shown) [Example 83, 1-{6-[1-(2,6-dichloro-3-fluorophenyl)ethoxy]-1,3-benzothiazol-2-yl}-3-[3-(diethylamino)propyl]urea] was tested, and the IC50 was less than 500 nM.
